The conditions of data set [1]: in vivo; cited from earlier work.
Data set [2] deals with WPMY-1 cells. Put plainly: plate colony formation assay. Format: cell-based, human. The settings on record: 14 days. On the procedure:
WPMY-1 cells are an immortalized cell line obtained from human prostate stroma without prostate cancer (Webber et al., 1999). Cells were obtained from American Type Culture Collection (ATCC; Manassas, Va., USA), and kept in RPMI 1640 (Gibco, Carlsbad, Calif., USA) supplemented with 10% fetal calf serum (FCS) and 1% penicillin/streptomycin at 37° C. with 5% CO2. Before addition of onvansertib or DMSO, the medium was changed to a FCS-free medium. For Western blot analysis, cells were lyzed using radioimmunoprecipitation assay (RIPA) buffer (Sigma-Aldrich, St. Louis, Mo., USA), and removed from flasks after 15 min of incubation on ice. Cell debris was removed by centrifugation (10,000 g, 10 min, 4° C.), and different aliquots of supernatants were either subjected to protein determination, or boiled with SDS sample buffer.
Cells were incubated at 37° C. for 14 days, then washed twice with PBS, and fixed by 2 ml of 10% trichloroacetic acid overnight (4° C.). Subsequently, all plates were washed five times with cold water, and stained with 0.4% sulforhodamine B solution (diluted in 1% acetic acid) at room temperature for 30 min. Before taking photos, all plates were labeled and washed five times with 1% acetic acid. The number of colonies containing 50 cells or more was counted under a microscope.

In data set [3] the test system is human prostate tissues. Put plainly: organ bath, EFS-induced (neurogenic) contractions of human prostate strips. An excerpt:
Patients who underwent previous transurethral resection of the prostate (TURP) were excluded. […] Informed consent was obtained from all patients. According to the ethical approval, samples and data were collected and analyzed anonymously, so that no data on patients' characteristics were stored. Samples were taken immediately after prostatectomy, following macroscopical examination by an uro-pathologist. […] For macroscopic examination and sampling, the prostate was opened by a single longitudinal cut from the capsule to the urethra. Subsequently, both intersections were checked macroscopically for any obvious tumor infiltration. […] Prostates showing tumors in the periurethral zone in macroscopic inspection were not subjected to sampling and were not included in this study. Organ bath studies were performed immediately after sampling, while samples for molecular analyses were shock frozen in liquid nitrogen and stored at −80° C.
In each single experiment, two from four strips obtained from the same prostate were allocated to the control group (without inhibitor or antagonist), and two others to the inhibitor/antagonist group (resulting in duplicate determination for each group in each single experiment). All four samples of one experiment were examined in four chambers of the same organ bath. Consequently, control and inhibitor curves in each series/diagram were obtained from the same prostates, but different prostates were examined for different series/diagrams. […] Therefore, and considering that prostate tissues from radical prostatectomy may show considerable heterogeneity, statistical comparisons were only performed between groups within the same series (i. e. containing tissues from the same prostates for inhibitor and control group), but not between series obtained from different prostates (i. e., not across different series of organ bath experiments). Only one curve was recorded with each sample, i. e. for one agonist, or for electric field stimulation (EFS).
Subsequently, chambers were washed three times with Krebs-Henseleit solution for a total of 30 min.
Application of EFS simulates action potentials, resulting in the release of endogenous neurotransmitters, including noradrenaline. […] For EFS, tissue strips were placed between two parallel platinum electrodes connected to a CS4 stimulator (Danish Myotechnology). […] EFS-induced contractile responses were studied at frequencies of 2, 4, 8, 16, and 32 Hz, with train intervals of 30 s between stimulations.
Data analyses and calculations were based on maximum peak heights of contractions. For calculation of agonist- or EFS-induced contractions, tensions were expressed as % of KCl-induced contractions, as this may correct different stromal/epithelial ratios, different smooth muscle content, varying degree of BPH, or any other heterogeneity between prostate samples and patients.

These results are taken from patent publication US20220143021A1 (Cardiff Oncology, Inc., priority 2019, published 2022).

“And” between values parts separate entries of the source, which are not always exact repeats. Equal values may be shown once.

Broadly, the inhibition is the relative decrease from the control value, in per cent. Read a high inhibition as a response far below the control. Take `CN1CCN(c2ccc(OC(F)(F)F)c(Nc3ncc4c(n3)-c3c(c(C(N)=O)nn3CCO)CC4)c2)CC1` [onvansertib, 1-(2-hydroxyethyl)-8-{[5-(4-methylpiperazin-1-yl)-2-(trifluoromethoxy)phenyl]amino}-4,5-dihydro-1H-pyrazolo[4,3-h] quinazoline-3-carboxamide]: the oral bioavailability entry in data set [1] was “good oral bioavailability”. Further, the “decrease of colony formation” value in data set [2] (10 nM) stood at 39±4.5%; in data set [2] (50 nM), 89±1.9%; in data set [2] (100 nM), 97±0.4%. Also, the “inhibition of EFS-induced contraction by add-on of onvansertib, compared to silodosin alone” value in data set [3] (32 Hz, onvansertib 100 nM combined with silodosin 100 nM) is 61% and 61±9.8%. In addition, the “inhibition of EFS-induced contraction by add-on of onvansertib, compared to tamsulosin alone” value in data set [3] (32 Hz, onvansertib 100 nM combined with tamsulosin 300 nM) was 59% and 59±11.5%. Also, in data set [3] (Homo sapiens), at 0.1 µM the inhibition was 34%. Also, testing at 1 µM in data set [3] (Homo sapiens) gave an inhibition of 34%. For the same compound, the “EFS-induced contractions after washout versus DMSO” value in data set [3] (washout of onvansertib (100 nM) for 30 min) was “did not differ”.
